# pEC50: −log10 of the molar value. Ends that are not written are not given here.
# What was measured:
# human neutrophils = assay: Neutrophil chemotaxis in Modified Boyden 48-well Microchemotaxis Chambers; type: cell-based; conditions: for maximal stimulation of neutrophil chemotaxis relative to thrombin or IL-8: FIG. 3 vs FIG. 1C
# Procedure: Human neutrophils were isolated from blood of healthy volunteers, drawn into one-tenth volume of trisodium citrate. The neutrophils were isolated from the blood using established Ficoll-Hypaque (MONO POLYRESOLVING MEDIUM™) protocol, Kalmer et al. 1988, specifically incorporated herein by reference. The cells were washed in HBSS containing 20 mM HEPES, pH 7.4 (HHBSS), pelleted by centrifugation (600×g), and resuspended into HHBSS at the indicated density. Trypan blue exclusion assays indicated greater than 97% cell viability.
# Freshly isolated human neutrophils (150,000 cells per 50 μl) were applied to wells of Modified Boyden 48-well Microchemotaxis Chambers (Neuro Probe, Cabin John, Md.) with pre-wet […], PVP-free polycarbonate membranes (Neuro Probe, Cabin John, Md.) (see Mansfield, et al. 1990, which is specifically incorporated herein by reference). The lower well in these chambers were filled with 27 μl of HHBSS solution containing indicated concentrations of substances to be tested. After loading, the chambers were incubated for 2 hours at 37° C. Membranes were removed, rinsed with HHBSS, fixed and stained using DIFF-QUIK® to visualize and quantitate cells that had migrated through the filters. For each assay condition, cells migrating through 4 wells were examined using a Nikon Microscope (at 400×). For each well, the total cells present in 6 random fields were counted and recorded. Each assay represents data from at least three analyses of the same type with neutrophils isolated from at least two individuals.
# Freshly isolated human peripheral blood neutrophils were added to wells of Modified Boyden Microwell Chemotaxis Chambers and the number of cells migrating through the filters was determined as described in Materials and Methods. For each assay, cells migrating through 4 wells were examined, counted, and recorded (6 random fields per well) using a Nikon LabPhot Microscope (400×).
# Human neutrophils were added to wells of Boyden Microwell Chambers and assayed for directed chemotaxis toward indicated concentrations of synthetic peptides representing the tethered ligand region of PART (SFLLRNPNDKYEPF—SEQ ID NO.: 7), or TRAP-508, the high-affinity receptor binding domain of human thrombin ([…]—SEQ ID NO.: 8).
# Indicated concentrations of peptides representing residues 26-41 of the human (SEQ ID NO.: 1) (∇) or hamster (SEQ ID NO.: 2) (∘) PART receptor component were added to lower wells of Boyden Microwell Chambers and neutrophil chemotaxis toward the peptides was assayed as described above.
# neutrophils = assay: Superoxide generation by stimulated neutrophils (SOD-inhibitable ferricytochrome C reduction); type: cell-based, human; conditions: for O2 released (superoxide generation): 2×10^6 neutrophils/ml, twenty minutes after addition
# Procedure: Superoxide generation was determined by measuring the superoxide dismutase (SOD)-inhibitable reduction of ferricytochrome C (Thomas et al., 1992, incorporated herein by reference). Briefly, 2×10^6 neutrophils/ml were incubated with, ferricytochrome C (433 μg/ml) and glucose (1.1 mM) in phosphate buffered saline (PBS) at 37° C. for five minutes, in presence or absence of 1 μg/ml SOD. Twenty minutes after addition of NTP, IL-8, or PBS, aliquots were removed, cooled to 4° C., and filtered through […] particle separators (Amicon). The optical absorption of the filtrate was then read at 550 nm. The amount of O2 generated was calculated by the difference in absorbance of the samples with or without SOD, using a 15.5 millimolar extinction coefficient at 550 nm for cytochrome C reduction.
# [1] = test system: fibroblasts and other cells; conditions: Van Obberghen-Schilling and Pouyssegur 1993; cited from earlier work
# fibroblasts [2] = assay: c-fos and other G-protein initiated signals in fibroblasts; type: cell-based; conditions: compared with proteolytically active thrombin
# Text: Therefore, the PART activating peptide fragment was not sufficient to stimulate chemotaxis.
# [3] = test system: NTP receptor on human neutrophils; assay: 125I-NTP-Y saturation binding to neutrophils
# Procedure: NTP was radiolabeled using IODO-GEN® (Pierce) catalyzed iodination (Fraker and Speck, 1978, specifically incorporated herein by reference). 5 mCi of Na^125I (Amersham, UK) was incubated in glass tubes coated with IODO-GEN® with 250 μg of HPLC-purified NTP-Y in 250 μl of Phosphate Buffered Saline (PBS), pH 7.2. After 7 minutes, the radiolabeled peptide was separated from free ^125Iodine by its adsorption to a C-18 SEP PAK® column, followed by elution with 100% acetonitrile. The eluted radioactive peptide was then dried under vacuum to remove acetonitrile, rehydrated with PBS, and stored as frozen aliquots (−20° C.) at a concentration of 100 μg/ml.
# For saturation binding assays, […] were incubated at 37° C. with indicated concentrations of ^125I-NTP-Y in 100 μl of DV medium containing 20 mM HEPES buffer, pH 7.4, in 0.6 ml eppendorf tubes. The binding was terminated and ^125I-NTP-Y that was bound to cells was separated from free ^125I-NTP-Y by rapid filtration and rinsing (2× with 10 mls of 4° C. PBS) through Whatman GF/C filters, using a Millipore filtration apparatus. Radioactivity on filters was then counted in a gamma counter (Beckman Instruments, Inc., model Gamma 4000). Nonspecific binding of ^125I-NTP-Y was measured in the presence of a 500-fold molar excess of unlabeled peptide and was subtracted from total binding to determine the amount of specific (saturable) binding.
# NTP was synthesized with an N-terminal tyrosine (YRRPESKATNATLDPR—SEQ ID NO.: 6), analyzed for chemotactic activity, and radiolabeled as described in methods. […] Specific binding was determined by subtracting the nonspecific binding of ^125I-NTP-Y (binding in the presence of 500-fold molar excess of unlabeled NTP-Y) from the total binding. Insert represents a Scatchard-like analysis of the binding isotherm using total radioactivity in the medium as a measure of free ligand. […]
# fibroblasts [4] = assay: Parallel 125I-NTP-Y binding studies with fibroblasts
# Text: The chemotactic effects of NTP appeared to be mediated by interaction with specific NTP receptor binding sites on the surface of neutrophils.
substance,measurement,setting,value
IL-8: recombinant IL-8,pEC50,"human neutrophils; FIG. 1, 2 hours at 37° C., read-out: concentration required for half-maximal stimulation of neutrophil chemotaxis",~8.00
same,O2 released (superoxide generation),neutrophils; 400 nmolar IL-8,102 ± 16 nmol
NTP: released N-terminal fragment peptide of PART; species (human or hamster) not stated at these places (RQPESEMTDATVNPR),neutrophil chemotaxis,"human neutrophils; NTP, Example 4",stimulated neutrophil chemotaxis
same,superoxide generation compared to IL-8,neutrophils; 800 nM NTP vs 400 nmolar IL-8,negligible
same,O2 released (superoxide generation),neutrophils; 800 nM NTP,9 ± 0.9 nmol
same,activity on fibroblasts and other cells,[1],no apparent activity
"RQPESEMTDA TVNPR (RQPESEMTDATVNPR) [SEQ ID NO.: 2, peptide representing residues 26-41 of the hamster PART receptor component]",maximal stimulation of neutrophil chemotaxis relative to thrombin or IL-8,human neutrophils,nearly equivalent to that seen with thrombin or IL-8
"RRPESKATNA TLDPR (RRPESKATNATLDPR) [SEQ ID NO.: 1, peptide representing residues 26-41 of the human PART receptor component]",maximal stimulation of neutrophil chemotaxis relative to thrombin or IL-8,human neutrophils,nearly equivalent to that seen with thrombin or IL-8
SFFLRN [reference compound],neutrophil chemotaxis,human neutrophils; concentrations up to 2000-fold higher than NTP,did not
"SFLLRNPNDKYEPF [PART activating peptide fragment, synthetic peptide representing the tethered ligand region of PART, reference compound]",neutrophil chemotaxis,"human neutrophils; concentrations up to 7.0 μM, FIG. 2",only marginally chemotactic
same,stimulation of c-fos and other G-protein initiated signals,fibroblasts [2],nearly the same extent as proteolytically active thrombin
^125I-NTP-Y: NTP-Y radiolabeled with 125I by IODO-GEN catalyzed iodination (YRRPESKATNATLDPR; also: 125I radiolabel),binding to human neutrophils,"[3]; 40 min at 37° C., FIG. 5",specified and saturable
same,NTP receptors per cell (saturation curve and Scatchard-like analysis),"[3]; human neutrophils, FIG. 5 insert",~3000 receptors per cell
same,dose-response curve compared with NTP,"[3]; iodinated peptide, iodination does not alter peptide activity",nearly identical to NTP
same,specific binding to fibroblasts,fibroblasts [4],no detectable specific binding

# Source: patent US20050019331A1, “Synthetic peptide neutrophil cell chemotactic agents” (Chrysalis Biotechnology, priority 1994, published 2005)
